Source: ChEMBL document CHEMBL4627338, “Selective CDK6 degradation mediated by cereblon, VHL, and novel IAP-recruiting PROTACs” (Bioorg Med Chem Lett, 2020)
The source made the active and inactive calls. No cut-off for these calls is given here.

How the values were obtained:
[1] = target: Baculoviral IAP repeat-containing protein 2/Cyclin-dependent kinase 6 (Homo sapiens, UniProt Q00534+Q13490); test: Protac activity at CDK6/BIRC2 in human Jurkat cells assessed as induction of CDK6 degradation measured after 24 hrs by capillary electrophoresis; format: cell-based
Sequence of Baculoviral IAP repeat-containing protein 2/Cyclin-dependent kinase 6 (Q00534 whole entry): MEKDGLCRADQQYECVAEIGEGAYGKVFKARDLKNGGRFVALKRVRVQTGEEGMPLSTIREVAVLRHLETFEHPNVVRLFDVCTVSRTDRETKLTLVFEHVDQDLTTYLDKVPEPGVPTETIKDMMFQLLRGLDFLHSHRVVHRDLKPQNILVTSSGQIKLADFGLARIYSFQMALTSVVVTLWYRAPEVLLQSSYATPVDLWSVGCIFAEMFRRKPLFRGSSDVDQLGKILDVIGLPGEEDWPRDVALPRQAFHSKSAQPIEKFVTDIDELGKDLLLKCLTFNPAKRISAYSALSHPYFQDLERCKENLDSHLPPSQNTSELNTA
Sequence of Baculoviral IAP repeat-containing protein 2/Cyclin-dependent kinase 6 (Q13490 whole entry): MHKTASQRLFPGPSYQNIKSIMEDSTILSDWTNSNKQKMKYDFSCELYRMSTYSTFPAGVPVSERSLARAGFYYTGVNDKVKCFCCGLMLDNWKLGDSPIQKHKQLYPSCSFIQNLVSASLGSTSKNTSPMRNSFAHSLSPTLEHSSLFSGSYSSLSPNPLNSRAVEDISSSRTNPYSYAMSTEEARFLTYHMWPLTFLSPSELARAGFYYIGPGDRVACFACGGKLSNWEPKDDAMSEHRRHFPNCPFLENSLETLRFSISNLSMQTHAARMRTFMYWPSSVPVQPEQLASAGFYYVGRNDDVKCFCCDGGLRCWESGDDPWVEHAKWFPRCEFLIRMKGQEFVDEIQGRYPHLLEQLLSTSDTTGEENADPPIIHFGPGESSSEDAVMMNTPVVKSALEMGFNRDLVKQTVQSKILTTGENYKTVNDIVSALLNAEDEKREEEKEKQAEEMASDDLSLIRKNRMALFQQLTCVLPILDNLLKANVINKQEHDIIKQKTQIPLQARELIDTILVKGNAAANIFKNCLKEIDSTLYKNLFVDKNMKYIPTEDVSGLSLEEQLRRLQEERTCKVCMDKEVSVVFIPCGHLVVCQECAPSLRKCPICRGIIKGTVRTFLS

CDK6/cyclin D3 = CDK6/cyclin D3 (Homo sapiens, UniProt Q00534); test: Inhibition of human CDK6/cyclin-D3 using RB protein as substrate by [gamma-33P]-ATP assay; format: protein-complex assay
Sequence of CDK6/cyclin D3 (P30281 whole entry): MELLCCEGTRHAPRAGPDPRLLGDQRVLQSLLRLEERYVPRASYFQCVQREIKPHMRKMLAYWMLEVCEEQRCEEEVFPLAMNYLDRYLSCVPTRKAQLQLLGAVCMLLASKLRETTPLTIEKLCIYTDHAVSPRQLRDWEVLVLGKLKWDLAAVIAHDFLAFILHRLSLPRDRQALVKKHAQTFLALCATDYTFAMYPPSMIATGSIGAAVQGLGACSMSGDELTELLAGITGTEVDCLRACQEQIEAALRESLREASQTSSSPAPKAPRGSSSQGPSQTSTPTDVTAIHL
Sequence of CDK6/cyclin D3 (Q00534 whole entry): as the sequence (Q00534 whole entry) above

[2] = target: Cyclin-dependent kinase 4/cyclin D1 (Homo sapiens, UniProt P11802); test: Inhibition of human CDK4/cyclin-D1 using RB protein as substrate by [gamma-33P]-ATP assay; format: protein-complex assay
Sequence of Cyclin-dependent kinase 4/cyclin D1 (P11802 whole entry): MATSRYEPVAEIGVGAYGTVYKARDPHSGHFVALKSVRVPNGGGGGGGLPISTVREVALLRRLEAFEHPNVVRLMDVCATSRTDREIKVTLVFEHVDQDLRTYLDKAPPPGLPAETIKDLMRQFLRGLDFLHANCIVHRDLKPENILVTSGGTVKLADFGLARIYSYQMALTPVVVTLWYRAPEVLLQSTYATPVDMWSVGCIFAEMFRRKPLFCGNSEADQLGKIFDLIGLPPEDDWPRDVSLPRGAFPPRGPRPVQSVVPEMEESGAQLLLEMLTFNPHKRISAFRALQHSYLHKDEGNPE
Sequence of Cyclin-dependent kinase 4/cyclin D1 (P24385 whole entry, further chain): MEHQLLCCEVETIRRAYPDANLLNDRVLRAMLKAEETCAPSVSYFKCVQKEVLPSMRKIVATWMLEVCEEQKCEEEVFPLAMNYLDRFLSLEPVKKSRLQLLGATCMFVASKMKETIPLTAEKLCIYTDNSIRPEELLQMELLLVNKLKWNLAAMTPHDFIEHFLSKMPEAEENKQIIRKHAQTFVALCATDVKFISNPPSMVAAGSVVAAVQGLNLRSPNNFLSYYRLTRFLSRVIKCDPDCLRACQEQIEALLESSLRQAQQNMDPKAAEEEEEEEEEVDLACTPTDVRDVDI

[3] = target: T1, Baculoviral IAP repeat-containing protein 2/Cyclin-dependent kinase 4 (Homo sapiens, UniProt P11802+Q13490); test: Protac activity at CDK4/BIRC2 in human Jurkat cells assessed as induction of CDK4 degradation measured after 24 hrs by capillary electrophoresis; format: cell-based
Target sequence in this assay (P11802 whole entry): as the sequence (P11802 whole entry) above
Target sequence in this assay (Q13490 whole entry): as the sequence (Q13490 whole entry) above

[4] = target: von Hippel-Lindau disease tumor suppressor/Cyclin-dependent kinase 6 (Homo sapiens, UniProt Q00534+P40337); test: Protac activity at CDK6/VHL in human Jurkat cells assessed as induction of CDK6 degradation measured after 24 hrs by capillary electrophoresis; format: cell-based
Sequence of von Hippel-Lindau disease tumor suppressor/Cyclin-dependent kinase 6 (Q00534 whole entry): as the sequence (Q00534 whole entry) above
Sequence of von Hippel-Lindau disease tumor suppressor/Cyclin-dependent kinase 6 (P40337 whole entry): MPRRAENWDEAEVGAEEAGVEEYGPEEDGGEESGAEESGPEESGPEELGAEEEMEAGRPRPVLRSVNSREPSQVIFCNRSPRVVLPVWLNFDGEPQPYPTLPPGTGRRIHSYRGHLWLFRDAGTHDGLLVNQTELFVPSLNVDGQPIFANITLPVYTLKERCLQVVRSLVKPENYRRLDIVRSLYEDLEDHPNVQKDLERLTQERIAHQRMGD

[5] = target: T2, von Hippel-Lindau disease tumor suppressor/Cyclin-dependent kinase 4 (Homo sapiens, UniProt P11802+P40337); test: Protac activity at CDK4/VHL in human epoxomicin pretreated Jurkat cells assessed as decrease in CDK4 protein level measured after 5 hrs; format: cell-based
Target sequence in this assay (P11802 2-303 limits assumed): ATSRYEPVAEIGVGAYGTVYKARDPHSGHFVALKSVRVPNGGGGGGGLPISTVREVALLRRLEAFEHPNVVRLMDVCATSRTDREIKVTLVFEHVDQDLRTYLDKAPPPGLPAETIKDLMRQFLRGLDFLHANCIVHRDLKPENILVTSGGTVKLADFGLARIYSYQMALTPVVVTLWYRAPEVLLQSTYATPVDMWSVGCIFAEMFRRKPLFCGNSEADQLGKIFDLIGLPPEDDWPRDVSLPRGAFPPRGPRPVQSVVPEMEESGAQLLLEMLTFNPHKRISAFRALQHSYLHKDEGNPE
Target sequence in this assay (P40337 whole entry partner): as the sequence (P40337 whole entry) above

[6] = tested on: von Hippel-Lindau disease tumor suppressor/Cyclin-dependent kinase 4 (Homo sapiens); test: Protac activity at CDK4/VHL in human epoxomicin pretreated Jurkat cells assessed as decrease in CDK4 protein level measured after 5 hrs
[7] = target: T2, von Hippel-Lindau disease tumor suppressor/Cyclin-dependent kinase 4; test: Protac activity at CDK4/VHL in human Jurkat cells assessed as induction of CDK4 degradation measured after 24 hrs by capillary electrophoresis; format: cell-based
Target sequence in this assay (P11802 whole entry): as the sequence (P11802 whole entry) above
Target sequence in this assay (P40337 whole entry): as the sequence (P40337 whole entry) above

[8] = target: T1, Baculoviral IAP repeat-containing protein 2/Cyclin-dependent kinase 4; test: Protac activity at CDK4/BIRC2 in human epoxomicin pretreated Jurkat cells assessed as decrease in CDK4 protein level measured after 5 hrs; format: cell-based
Target sequence in this assay (P11802 2-303 limits assumed): as the sequence (P11802 2-303 limits assumed) above
Target sequence in this assay (Q13490 whole entry partner): as the sequence (Q13490 whole entry) above

[9] = tested on: Baculoviral IAP repeat-containing protein 2/Cyclin-dependent kinase 6 (Homo sapiens); test: Protac activity at CDK6/BIRC2 in human epoxomicin pretreated Jurkat cells assessed as decrease in CDK6 protein level measured after 5 hrs
[10] = target: Protein cereblon/Cyclin-dependent kinase 6 (Homo sapiens, UniProt Q00534+Q96SW2); test: Protac activity at CRBN/CDK6 in human Jurkat cells assessed as induction of CDK6 degradation measured after 24 hrs by capillary electrophoresis; format: cell-based
Sequence of Protein cereblon/Cyclin-dependent kinase 6 (Q00534 whole entry): as the sequence (Q00534 whole entry) above
Sequence of Protein cereblon/Cyclin-dependent kinase 6 (Q96SW2 whole entry): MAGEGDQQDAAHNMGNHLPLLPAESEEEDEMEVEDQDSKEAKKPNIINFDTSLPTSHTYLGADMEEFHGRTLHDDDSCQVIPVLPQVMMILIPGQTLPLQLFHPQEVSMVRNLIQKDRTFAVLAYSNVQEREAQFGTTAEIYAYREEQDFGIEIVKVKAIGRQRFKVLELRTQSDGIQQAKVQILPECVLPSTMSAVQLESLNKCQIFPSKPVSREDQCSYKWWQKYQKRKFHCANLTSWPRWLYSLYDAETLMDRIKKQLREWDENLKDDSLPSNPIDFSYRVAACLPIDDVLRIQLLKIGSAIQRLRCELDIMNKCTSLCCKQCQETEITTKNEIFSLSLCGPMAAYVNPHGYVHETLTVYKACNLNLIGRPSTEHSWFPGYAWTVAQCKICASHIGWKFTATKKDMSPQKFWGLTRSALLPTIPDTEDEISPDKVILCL

[11] = target: Protein cereblon/Cyclin-dependent kinase 4 (Homo sapiens, UniProt P11802+Q96SW2); test: Protac activity at CRBN/CDK4 in human Jurkat cells assessed as induction of CDK4 degradation measured after 24 hrs by capillary electrophoresis; format: cell-based
Sequence of Protein cereblon/Cyclin-dependent kinase 4 (P11802 whole entry): as the sequence (P11802 whole entry) above
Sequence of Protein cereblon/Cyclin-dependent kinase 4 (Q96SW2 whole entry): as the sequence (Q96SW2 whole entry) above

pDC50 [1]	IC50 (CDK6/cyclin D3; read-out: pIC50 (converted))	IC50 [2]	pDC50 [3]	Structure (SMILES)	further results
5.8	0.0398 µM	0.0158 µM	5.3	CN[C@@H](C)C(=O)N[C@H](C(=O)N1C[C@@H](NC(=O)CCOCCOCCOCCNC(=O)CN2CCN(c3ccc(Nc4ncc5c(C)c(C(C)=O)c(=O)n(C6CCCC6)c5n4)nc3)CC2)C[C@H]1C(=O)Nc1c(F)cccc1F)C(C)(C)C	–
7.8	0.0158 µM	0.00631 µM	7.1	CN[C@@H](C)C(=O)N[C@H](C(=O)N1C[C@@H](NC(=O)COCCOCCOCCN2CCN(c3ccc(Nc4ncc5c(C)c(C(C)=O)c(=O)n(C6CCCC6)c5n4)nc3)CC2)C[C@H]1C(=O)Nc1c(F)cccc1F)C(C)(C)C	–
–	–	0.00316 µM	–	CC(=O)c1c(C)c2cnc(Nc3ccc(N4CCN(CCCCNC(=O)CNc5cccc6c5C(=O)N(C5CCC(=O)NC5=O)C6=O)CC4)cn3)nc2n(C2CCCC2)c1=O (stereo unspecified)	–
–	–	0.0316 µM	–	CC(=O)c1c(C)c2cnc(Nc3ccc(N4CCN(CCCCCCCC(=O)N[C@H](C(=O)N5C[C@H](O)C[C@H]5C(=O)N[C@@H](C)c5ccc(-c6scnc6C)cc5)C(C)(C)C)CC4)cn3)nc2n(C2CCCC2)c1=O	DC50 [4]: 0.004 µM; pDC50 [4]: 8.4; IC50 (CDK6/cyclin D3; read-out: IC50): 0.2 µM; Activity [5]: inactive; Activity [6]: inactive; pDC50 [7]: 7.6
8.3	0.0126 µM	0.00501 µM	7.7	CN[C@@H](C)C(=O)N[C@H](C(=O)N1C[C@@H](NC(=O)CCCCCCCN2CCN(c3ccc(Nc4ncc5c(C)c(C(C)=O)c(=O)n(C6CCCC6)c5n4)nc3)CC2)C[C@H]1C(=O)Nc1c(F)cccc1F)C(C)(C)C	Activity [8]: inactive; Activity [9]: inactive
–	0.0158 µM	0.00631 µM	–	CC(=O)c1c(C)c2cnc(Nc3ccc(N4CCN(CCOCCOCCNC(=O)CNc5cccc6c5C(=O)N(C5CCC(=O)NC5=O)C6=O)CC4)cn3)nc2n(C2CCCC2)c1=O (stereo unspecified)	pDC50 [10]: 8.3; pDC50 [11]: 7.3
